Data as given in patent US11230717B2, “Plants having increased tolerance to herbicides” (BASF SE, priority 2013, dated 2022).

Assays:
[1] = test system: transgenic Soy plants; test: Greenhouse testing of transgenic Soy plants (T2), herbicide spray test; format: in vivo, Glycine max
Description: (§1) Transgenic plants expressing heterologous HPPD or HST enzymes are tested for tolerance against HPPD-inhibiting herbicides in greenhouse experiments.
(§2) For post emergence treatment, the test plants are first grown to a height of 3 to 15 cm, depending on the plant habit, and only then treated with the herbicides. For this purpose, the test plants are either sown directly and grown in the same containers, or they are first grown separately and transplanted into the test containers a few days prior to treatment. For testing of T0 plants, cuttings can be used. In the case of soybean plants, an optimal shoot for cutting is about 7.5 to 10 cm tall, with at least two nodes present. Each cutting is taken from the original transformant (mother plant) and dipped into rooting hormone powder (indole-3-butyric acid, IBA). The cutting is then placed in oasis wedges inside a bio-dome. Wild type cuttings are also taken simultaneously to serve as controls. The cuttings are kept in the bio-dome for 5-7 days and then transplanted to pots and then acclimated in the growth chamber for two more days. Subsequently, the cuttings are transferred to the greenhouse, acclimated for approximately 4 days, and then subjected to spray tests as indicated.
(§3) Depending on the species, the plants are kept at 10-25° C. or 20-35° C. The test period ex-tends over 3 weeks. During this time, the plants are tended and their response to the individual treatments is evaluated. Herbicide injury evaluations are taken at 2 and 3 weeks after treatment. Plant injury is rated on a scale of 0 to 9, 0 being no injury and 9 being complete death.
As depicted in Table 20, control plants were severely injured by all doses of herbicide applied, with 79% of leaf material being damaged at the highest application rate. […] Application of 31,25 g/ha active ingredient resulted only in 10-13% of leaf damage in two independent transgenic plant lines. Thus, in direct comparison with wild-type plants (injury value is 49%), a 4-fold increased tolerance could be observed after spraying with 31,25 g/ha. […]

[2] = test system: transgenic Soy plants; test: as above; format: in vivo, Glycine max; remark: listed apart in the source
[3] = test system: transgenic Corn plants; test: Greenhouse testing of transgenic Corn plants (homozygous T2), herbicide spray test; format: in vivo, Zea mays
Description: as §1, §2, §3
Transgenic corn plants were sprayed with doses from 62.5-250 g/ha with the benzamide-derivative HPPD-inhibiting herbicide and injury evaluations were taken two weeks after treatment. […] As depicted in Table 19, control plants were severely injured by all doses of herbicide applied, with 86% of leaf material being damaged at the highest rate applied. […] Application of 250 g/ha active ingredient resulted only in 10% leaf damage (event 1) in transgenic plants which gave in direct comparison with wild-type plants (injury value is 86%) an 8-fold increased tolerance at this application rate. In addition, transgenic corn plants comprising a transgene encoding the mutated version of Arabidopsis HPPD with methionine 335 exchanged to histidine, are tolerant for the benzamide-derivative inhibitor tested in the present invention.

CSc1c(Cl)cc(F)c(C(=O)Nc2ncnn2C)c1Cl [Inhibitor 3, 2,4-dichloro-6-fluoro-3-methylsulfanyl-N-(2-methyl-1,2,4-triazol-3-yl)benzamide]
increased tolerance vs wild-type plants ([1]; Soy Arabidopsis HPPD (SEQ ID: 53), 31,25 g/ha): 4 fold
leaf damage ([1]; Soy Arabidopsis HPPD, two independent transgenic plant lines, 31,25 g/ha): 10-13%
tolerance compared to nontransgenic control plants ([1]; Soy expressing Glycine max HPPD): more tolerant
Injury evaluation, scale 0-100% ([2]; Soy AtHPPD Event 1, 31.25 g/ha, two weeks): 10%
Injury evaluation, scale 0-100% ([2]; Soy AtHPPD Event 1, 62.5 g/ha, two weeks): 16%
Injury evaluation, scale 0-100% ([2]; Soy AtHPPD Event 1, 125 g/ha, two weeks): 44%
Injury evaluation, scale 0-100% ([2]; Soy AtHPPD Event 2, 31.25 g/ha, two weeks): 13%
Injury evaluation, scale 0-100% ([2]; Soy AtHPPD Event 2, 62.5 g/ha, two weeks): 23%
Injury evaluation, scale 0-100% ([2]; Soy AtHPPD Event 2, 125 g/ha, two weeks): 40%
Injury evaluation, scale 0-100% ([2]; Soy AtL385V, I393L Event 2, 31.25 g/ha, two weeks): 20%
Injury evaluation, scale 0-100% ([2]; Soy AtL385V, I393L Event 2, 62.5 g/ha, two weeks): 35%
Injury evaluation, scale 0-100% ([2]; Soy AtL385V, I393L Event 2, 125 g/ha, two weeks): 38%
Injury evaluation, scale 0-100% ([2]; Soy AtM335H Event 1, 31.25 g/ha, two weeks): 10%
Injury evaluation, scale 0-100% ([2]; Soy AtM335H Event 1, 62.5 g/ha, two weeks): 21%
Injury evaluation, scale 0-100% ([2]; Soy AtM335H Event 1, 125 g/ha, two weeks): 33%
Injury evaluation, scale 0-100% ([2]; Soy AtM335H Event 2, 31.25 g/ha, two weeks): 14%
Injury evaluation, scale 0-100% ([2]; Soy AtM335H Event 2, 62.5 g/ha, two weeks): 29%
Injury evaluation, scale 0-100% ([2]; Soy AtM335H Event 2, 125 g/ha, two weeks): 31%
Injury evaluation, scale 0-100% ([2]; Soy AtM335Y, 31.25 g/ha, two weeks): 9%
Injury evaluation, scale 0-100% ([2]; Soy AtM335Y, 62.5 g/ha, two weeks): 45%
Injury evaluation, scale 0-100% ([2]; Soy AtM335Y, 125 g/ha, two weeks): 46%
Injury evaluation, scale 0-100% ([2]; Soy AtP336A, E363Q, L385V, I393L, 31.25 g/ha, two weeks): 30%
Injury evaluation, scale 0-100% ([2]; Soy AtP336A, E363Q, L385V, I393L, 62.5 g/ha, two weeks): 30%
Injury evaluation, scale 0-100% ([2]; Soy AtP336A, E363Q, L385V, I393L, 125 g/ha, two weeks): 50%
Injury evaluation, scale 0-100% ([2]; Soy GmHPPD1, 31.25 g/ha, two weeks): 15%
Injury evaluation, scale 0-100% ([2]; Soy GmHPPD1, 62.5 g/ha, two weeks): 29%
Injury evaluation, scale 0-100% ([2]; Soy GmHPPD1, 125 g/ha, two weeks): 46%
Injury evaluation, scale 0-100% ([2]; Soy, transgene none, 31.25 g/ha, two weeks after treatment): 49%
Injury evaluation, scale 0-100% ([2]; Soy, transgene none, 62.5 g/ha, two weeks after treatment): 68%
Injury evaluation, scale 0-100% ([2]; Soy, transgene none, 125 g/ha, two weeks after treatment): 79%
Injury evaluation, scale 0-100% ([3]; Corn AtL385V, I393L Event 1, 62.5 g/ha, two weeks): 3%
Injury evaluation, scale 0-100% ([3]; Corn AtL385V, I393L Event 1, 125 g/ha, two weeks): 7%
Injury evaluation, scale 0-100% ([3]; Corn AtL385V, I393L Event 1, 250 g/ha, two weeks): 10%
Injury evaluation, scale 0-100% ([3]; Corn AtL385V, I393L Event 2, 62.5 g/ha, two weeks): 6%
Injury evaluation, scale 0-100% ([3]; Corn AtL385V, I393L Event 2, 125 g/ha, two weeks): 10%
Injury evaluation, scale 0-100% ([3]; Corn AtL385V, I393L Event 2, 250 g/ha, two weeks): 47%
Injury evaluation, scale 0-100% ([3]; Corn AtM335H, 62.5 g/ha, two weeks): 3%
Injury evaluation, scale 0-100% ([3]; Corn AtM335H, 125 g/ha, two weeks): 4%
Injury evaluation, scale 0-100% ([3]; Corn AtM335H, 250 g/ha, two weeks): 6%
Injury evaluation, scale 0-100% ([3]; Corn WT, 62.5 g/ha, two weeks after treatment): 40%
Injury evaluation, scale 0-100% ([3]; Corn WT, 125 g/ha, two weeks after treatment): 63%
Injury evaluation, scale 0-100% ([3]; Corn WT, 250 g/ha, two weeks after treatment): 86%
